This is an account of results in patent US20060045881A1, “Anti-cancer vaccines” (Board of Regents, The University of Texas System, priority 2004, published 2006).

Several values for one entry are separate records, joined by “and”; a condition that tells them apart may be missing. Equal entries are not always repeated.

Assay [1] addresses HLA-A2.1 (Homo sapiens, UniProt P04439, D140Y/D185E/D98H/E176V/E277Q/G131W/G231S/I119V/I121R/I166T/I218V/L300P/L318F/N151K/N90K/P208A/P217A/Q86G/Q94H/R138H/R169H/T345S). Put plainly: HLA-A2.1 surface expression on peptide-coated T2 cells (indirect flow cytometry, BB7.2). The format is binding. To be noted: compared with T2 without peptide / control influenza peptide. The procedure:
Cell lines and peptide binding. T2 cells (American Type Culture Collection, Rockville, Md., USA) were maintained in culture in CM plus 10% FBS (Atlanta Biologicals Inc., Norcross, Ga., USA). PR1 peptide was incubated at increasing concentrations for 18 hr at 37° C. with 100 μg/ml β2m (Sigma-Aldrich) with 10^6 T2 cells in 1 ml CM. Cells were washed twice with CM, stained with BB7.2 Ab, washed again, and then stained with FITC-labeled secondary Ab (Becton Dickinson Immunocytometry Systems, San Jose, Calif., USA).
T2 cells are a human lymphocyte line that lacks TAP1 and TAP2 genes and therefore cannot present endogenous MHC class I restricted antigens. If the peptide effectively bound HLA-A2.1, it stabilized the complex with (β2-microglobulin and increased HLA-A2.1 surface expression, which could be measured using flow cytometry. An HLA-A2.1 specific monoclonal antibody (BB7.2, ATCC, Rockville, Md.) followed by a FITC-labeled secondary antibody (CalTag Laboratories, Burlingame, Calif.) was used to measure surface expression of HLA-A2.1.
T2 cells are a human lymphocyte line that lacks TAP1 and 2 genes and cannot therefore present endogenous MHC class I restricted antigens. If the peptide effectively bound HLA-A2.1, it stabilized the complex with β2-microglobulin and increased HLA-A2.1 surface expression, which could be measured using flow cytometry. An HLA-A2.1 specific monoclonal antibody (BB7.2, ATCC, Rockville, Md.) followed by a FITC-labeled secondary antibody (CALTAG) was used to measure surface expression of HLA-A2.1. […] The labeled heterotrimer complex was separated from unincorporated β2-microglobulin by high-performance liquid

Assay [2] has as its system T2 cells. Put plainly: 4-hr cytotoxicity of peptide-elicited CTL lines against peptide-loaded T2 cells.
Method: CTL cytotoxicity assay. A semiautomated minicytotoxicity assay was used to determine specific lysis as described previously (Molldrem, 2000; Molldrem et al., 1996). Briefly, effector cells were prepared in doubling dilutions from 6×10^3 to 25×10^3 cells/well and were plated in 40 μl, 60-well Terasaki trays (Robbins Scientific, Sunnyvale, Calif., USA) with six replicates per dilution. Target cells (T2 cells, marrow-derived leukemic cells, or BM from a healthy donor) at a concentration of 2×10^6 cells/ml were stained with 10 μg/ml of Calcein-AM (Molecular Probes Inc.) for 60 min at 37° C. After washing three times in CM plus 10% AB, target cells were resuspended at 10^5 cells/ml, and 10^3 target cells in 10 μl medium were added to each well containing effector cells. Wells with target cells alone and medium alone were used for maximum (max) and minimum (min.) fluorescence emission, respectively. After 4 hr incubation at 37° C. in 5% CO2, 5 μl FluoroQuench (One Lambda Inc., Canoga Park, Calif., USA) was added to each well, and the trays were centrifuged for 1 min at 60 g before measurement of fluorescence using an automated CytoFluor II plate reader (PerSeptive Biosystems, Framingham, Mass., USA). The percentage of lysis was calculated as follows: % lysis={1−[(mean experimental mission−mean min.)/(mean max−mean min.)]}×100%.
Induction of Primary CTL responses to peptides. These peptides were next used to stimulate T cells specific for peptide-coated targets. PBMC from a normal healthy donor heterozygous for HL-A2.1 were stimulated with peptide-pulsed T2 cells. […] Briefly, T2 cells (which co-express the costimulatory molecule B7.1) were washed 3 times in serum-free RPMI culture media supplemented with penicillin/streptomycin and glutamine (CM) and incubated with peptide at 20 μg/mL for 2 hr in CM. The peptide loaded T2 cells were then irradiated with 7500 cGy, washed once, and suspended with freshly isolated PBMC at a 1:1 ratio in CM supplemented with 10% human serum (HS) (Sigma, St. Louis, Mo.). […]
The subject of assay [3] is PBMC from HLA-A2.1+ healthy donors. Put plainly: In vitro elicitation of PR1-CTL from PBMC with peptide-pulsed APC, PR1/HLA-A2 tetramer staining. The format is cell-based, human. The procedure:
Peptide-specific CTLs were expanded in culture using methods described previously (Molldrem et al., 1996; Molldrem et al., 1997). Briefly, PBMCs from healthy donors or CML patients were stimulated in vitro with PR1, pp65, or flu peptides. T2 cells were washed three times in serum-free CM and incubated with peptide at the indicated peptide concentration for 2 hr in CM.
Ab's and flow cytometry. For routine surface-antigen staining, 10^6 PBMCs were incubated at 4° C. with Ab. After washing, cells were incubated with FITC-labeled CD8 (Caltag Laboratories Inc., Burlingame, Calif., USA) for 30 min on ice. Surface expression of TCR was determined with FITC-labeled TCR-αβ (PharMingen, San Diego, Calif., USA), and annexin V using FITC-labeled Ab (Caltag Laboratories). Proteinase 3 expression was determined with primary mouse Ab (Accurate Chemical & Scientific Corp., Westbury, N.Y., USA). Mouse monoclonal anti-HLA-A2.1 Ab BB7.2 and anti-HLA-ABC w6/32 were derived from culture supernatants of a hybridoma cell lines (American Tissue Culture Collection). Cells were washed and fixed in 2% paraformaldehyde and analyzed on a FACScan (Becton Dickinson Immunocytometry Systems), and data were analyzed using CELLQuest (Becton Dickinson Immunocytometry Systems) software. The minimum concentration of tetramer necessary to show distinctly different avidities was determined in titration experiments. Each tetramer reagent was titered individually and used at the optimal concentration. The tetramer concentration showing the maximal separation of fluorescence intensity of CTL populations was generally 10-20 μg/ml. Propidium iodide (PI) (Becton Dickinson Immunocytometry Systems) staining (1 μg/ml) was performed to exclude dead cells, according to the manufacturer's instructions. A “dump” channel was used with tetramer staining to eliminate monocytes and B lymphocytes with nonspecific binding to the HLA-A2 heavy chain by staining with PerCP-labeled CD14 and CD19 (both Becton Dickinson Immunocytometry Systems).
PR1-specific CTL with high and low TCR avidity can be elicited from healthy donors. To determine whether high and low avidity PR1-CTL are present in healthy donors, a modified tetramer staining technique (Savage et al., 1999) using limiting tetramer concentration to visualize high and low fluorescence intensity tetramer+ cells, which correlates with high and low TCR avidity was utilized. Sufficient PR1-CTL was elicited by stimulating PBMC with increasing peptide concentrations for 28 days. PBMC from an HLA-A2.1+ healthy donor stimulated weekly for 28 days with 0.2 μM PR1 elicited 1.3% high intensity PR1/HLA-A2 tetramer-staining CTL with a median channel of fluorescence (MCF) of 293 (high avidity PR1-CTL), while stimulation with 20 μM PR1 produced 3.1% low avidity (MCF=93) PR1-specific CTL (FIG. 11A). […] Cultures stimulated with 2 μM PR1 produced fewer PR1-specific CTL with mixed TCR avidities, while stimulation with ≦0.02 μM PR1 induced <0.1% PR1-CTL. […] To further verify that tetramer staining intensity correlates with TCR avidity, the kinetics of tetramer staining decay was determined using previously described techniques (Savage et al., 1999).

In assay [4] the test system is marrow cells from a normal healthy donor. Put plainly: Cytotoxicity of peptide-elicited CTL against normal donor marrow cells. The format is cell-based, human. An excerpt: (§1) PR1 specific CTL preferentially lyse human myeloid leukemia cells. It was next determined whether the PR1-specific CTL line was capable of lysing allogeneic human myeloid leukemia cells from HLA-A2.1 positive individuals. As controls, two cell lines expressing low levels of Pr3 were used: HLA-A2.1 transfected K562 cells and U937 cell line which lack HLA-A2.1 and would therefore be incapable of presenting peptides in an HLA-A2.1-restricted manner. Cryopreserved bone marrow cells from patients P1-P4, and marrow cells from a healthy normal volunteer (D2, a bone marrow donor for an allogeneic bone marrow transplant performed on patient P3) were thawed and used as targets for the PR1-specific CTL line.
(§2) It was next determined whether the MY2 and MY4-specific CTL lines were capable of lysing allogeneic human myeloid leukemia cells from HLA-A2.1 positive individuals. The targets were BM cells from pre-transplant HLA-A2.1-positive AML patients. As controls, BM cells from HLA-A2.1-negative AML patients, BM from HLA-A2.1-positive healthy donors and two cell lines expressing low levels of MPO were used: HLA-A2.1 transfected K562 cells and the U937 cell line which lacks HLA-A2.1 and would therefore be incapable of presenting peptides in an HLA-A2.1-restricted manner.

Assay [5] relates to HMy2.CIR-A2 cells transfected with Pr3. In words: PR1-specific CTL lysis of Pr3-transfected HMy2.CIR-A2 cells. The format is cell-based, human. To be noted: clone 1.4; E:T 25:1. The procedure: Expression of proteinase 3 following transfection into and HMy2.CIR and HMy2.CIR-A2 cells. […] The parental HMy2.CIR cell line, which has lost expression of HLA-A and -B, and the HLA-A2.1-transfected HMy2.CIR cells (named HMy2.CIR-A2), were both transfected with Pr3 as described below.
Ten million HMy2.CIR (ATCC, Rockville, Md.), or 10 million HMy2.CIR-A2 cells were each washed in phosphate buffered saline (PBS) and re-suspended in 0.8 mL of ice-cold PBS and put into an electroporation cuvette with 20 μg of circular plasmid DNA. The mixture was exposed to an electric pulse of 320 volts at 960 microF and incubated on ice for 10 min. Cells were then added to 10 mL of pre-warmed CM. The following day, the CM was replaced. On day 2, cells were grown under selection conditions using 200 μg/mL Zeocin. Following one week of selection, the cells were subcloned by limiting dilution under Zeocin selection, and 6 clones were isolated.
HMy.2.CIR-A2 cells transfected with Pr3 are susceptible to lysis by PR1 specific CTL. It was next determined whether the transfected HMy2.CIR-A2 cells could be lysed by PR1 specific CTL. The PR1 specific CTL were elicited in the manner previously described, and after 22 days in culture were combined at a 25:1 E:T ratio with HMy2.CIR-A2 transfected either with the Pr3-containing vector pRTZ.2, or the empty vector containing the reporter gene, CAT. […]

The subject of assay [6] is human myeloid leukemia cells. In words: Cytotoxicity of peptide-elicited CTL against HLA-A2.1-positive myeloid leukemia marrow cells. The assay is classed as cell-based. To be noted: for lysis of HLA-A2.1-positive AML marrow cells by peptide-specific CTL: MY2: E:T 5:1.
From the text: as §1, §2

Assay [7] concerns HLA-A2+ patients with CML, AML or MDS. Put plainly: Phase I/II PR1 peptide vaccine study in myeloid leukemia patients. The format is in vivo, human.
Method: PR1 peptide is injected subcutaneously in incomplete Freund's adjuvant every 3 weeks for 3 injections to induce a PR1 specific host response against the myeloid leukemia. Both in Phase I and in Phase II, patients will also be evaluated for signs of immune reactivity. […] The amount of Proteinase 3 expression in the leukemia cells is studied by cytoplasmic flow cytometry analysis. Any clinical responses (defined by standard criteria as hematological and/or cytogenetic responses) will be correlated with the in vitro testing. Vaccination at 3 dose levels of peptide with a fixed amount of IFA will be conducted, and stopping criteria will be guided by established toxicity criteria.
HLA-A2^+ patients with CML (interferon-resistant or relapsed after BMT), AML (smoldering relapse or ≧2nd CR) or MDS (RAEB or RAEBt) with no detectable antibodies to proteinase 3 (no detectable cANCA) were eligible. Patients that relapsed after BMT or those ineligible for BMT were also eligible for study. […]
Secondarily, clinical responses were assessed by standard criteria with bone marrow biopsy, cytogenetic studies (standard chromosome banding) and molecular studies (PCR for bcr-abl or other known abnormalities such as t(15;17), inv16, etc.) 3 weeks after the last vaccination. Patients were seen and evaluated in clinic every 3 weeks during the study period. […]
Assay [8] concerns PR1-CTL. In words: Annexin V apoptosis of PR1-CTL challenged with peptide-pulsed T2 cells. The assay is classed as cell-based, human. To be noted: for apoptosis (Annexin V) of high avidity PR1-CTL: T2 pulsed with 20 μM peptide, 16 to 18 hr. An excerpt:
High PR1 concentration and proteinase 3-overexpressing CML cells induce apoptosis of high avidity PR1-specific CTL. […] All high avidity PR1-CTL exposed to high dose PR1 were dead after 36 to 48 hr of co-culture.

The subject of assay [9] is AML CFU-GM. In words: CFU-GM colony inhibition by MY4-pulsed CTL, AML marrow. The format is cell-based, human. To be noted: patient P1 (M2-AML) and P2 (M4-AML), respectively; 13 day MY4-pulsed CTL. An excerpt:
(§3) In contrast there was no inhibition of CFUGM from normal marrow, D1 and D2, the corresponding HLA identical marrow donors for P1 and P2.

In assay [10] the test system is CFU-GM from normal marrow. In words: CFU-GM colony inhibition by MY4-pulsed CTL, normal marrow. The format is cell-based, human. To be noted: D1 and D2, HLA identical marrow donors.
From the text: as §3

Where [11] appears, read: T2 loaded with 1.0 μg/mL of same peptide, varying E:T.

In the case of RLFPDFFTRV [PR2], the “surface HLA-A2.1 expression on peptide-pulsed T2 cells (in words)” value (shortened to “surface HLA-A2.1 expression”) in assay [1] was “increased surface HLA-A2.1 expression”. Moreover, in assay [2] (setting [11]), the “specific lysis of peptide-loaded T2 cells by CTL line generated against the peptide” value (from here on “specific lysis … against the peptide”) is recorded as “did not demonstrate any significant cytotoxicity”.
Regarding KLNDVLLIQL [PR7V], the “surface HLA-A2.1 expression” value in [1] was “strong peptide binding”.
VLQELNVTV [PR1]: the “surface HLA-A2.1 expression” value in assay [1] was “increased surface HLA-A2.1 expression”. For the same substance, the “% of bulk culture CTL double-positive (CD8, PR1-tetramer)” value in [3] (32 day-old PR1-stimulated CTL culture) came out at 4.3%. The figures for the “% PR1/HLA-A2 tetramer-staining CTL” value in assay [3] (PBMC stimulated weekly 28 days with 0.2 μM PR1 (high avidity)) and in [3] (stimulated with 20 μM PR1 (low avidity)) were 1.3% and 3.1%, respectively. Further, in assay [3] (day 17 CTL line elicited against PR1), the “% of CTL line specific for PR1 (PR1-tetramer/CD8)” value was found to be 2.4%. The “% PR1-CTL induced” value in [3] (stimulation with ≦0.02 μM PR1) was under 0.1%. Besides, the “lysis of normal donor marrow cells by PR1-specific CTL” value in assay [4] (donor D2) is on record as under 20%. Also, the “specific lysis … against the peptide” value in assay [2] (setting [11]) is “high specific lysis”. Besides, in assay [5], the “specific lysis of Pr3-transfected cells by PR1-specific CTL” value came to 36%. Besides, in [6] (CML-BC, E:T 25:1), the “specific lysis of CML blast crisis marrow cells by PR1-specific CTL” value is 73%. Also, the “lysis of CML #3 BM cells by patient CTL elicited with 0.2 μM PR1” value in assay [6] (CTL from patients CML #1 and CML #2, respectively, E:T 20:1) was 24%±5% and 33%±6%. In assay [6] (P1, CML in chronic phase, E:T 6:1), the “specific lysis of CML marrow cells by PR1-specific CTL” value was found to be 53%. The “patients with complete remission” value in [7] (9 patients (1 AML and 1 CML)) was found to be 2 patients. In addition, in [7] (9 patients, 0.25, 0.5 or 1.0 mg every 3 weeks x3), the “patients in whom PR1-specific CTL immunity was elicited (tetramer staining)” value was 6 of 9. Also, the “apoptosis (Annexin V) of high avidity PR1-CTL” value in assay [8] is “underwent apoptosis”. Also, in assay [8] (high or low concentrations of PR1), the “apoptosis (Annexin V) of low avidity PR1-CTL” value is “did not undergo apoptosis”.
In the case of KLNDILLIQL [PR7I], in [1], the “surface HLA-A2.1 expression” value is “strong peptide binding”.
On to KLLLALAGL [MY2], for which, in assay [4] (E:T 20:1), the “lysis of HLA-A2.1-positive normal healthy donor marrow cells by MY2-specific CTL” value was determined as 43%. Also, in assay [2] (T2 loaded with 2.0 μg/mL of same peptide), the “specific lysis … against the peptide” value was “high specific lysis”. In [6], the “lysis of HLA-A2.1-positive AML marrow cells by peptide-specific CTL” value was “readily lysed”.
As to RLFEQVMRI [MY4], the “specific lysis of HLA-A2+ normal BMC by peptide-specific CTL” value in assay [4] is listed as “not normal cells”. In addition, the “inhibition of CFU-GM” value in assay [9] is 63% and 34%. Moreover, in assay [6], the “lysis of HLA-A2.1-positive AML marrow cells by peptide-specific CTL” value is given as “killed AML cells”. In addition, the “inhibition of CFU-GM from normal marrow” value in assay [10] is “no inhibition”.
Consider “Influenza nucleoprotein: control influenza peptide, Influenza B nucleoprotein (aa 85-94), known high binding affinity to HLA-A2.1 (KLGEFYNQMM) [reference compound]”, for which, in assay [8], the “apoptosis (Annexin V) of high avidity PR1-CTL” value is reported as “no apoptosis was observed”.
